Assay [1] relates to Mus musculus. Description: In vivo inhibition of apomorphine-induced climbing response in mice. It counts as functional.
The target of assay [2] is T1, 5-hydroxytryptamine receptor 1A (Rattus norvegicus, UniProt P19327).
T1 sequence (P19327 whole entry): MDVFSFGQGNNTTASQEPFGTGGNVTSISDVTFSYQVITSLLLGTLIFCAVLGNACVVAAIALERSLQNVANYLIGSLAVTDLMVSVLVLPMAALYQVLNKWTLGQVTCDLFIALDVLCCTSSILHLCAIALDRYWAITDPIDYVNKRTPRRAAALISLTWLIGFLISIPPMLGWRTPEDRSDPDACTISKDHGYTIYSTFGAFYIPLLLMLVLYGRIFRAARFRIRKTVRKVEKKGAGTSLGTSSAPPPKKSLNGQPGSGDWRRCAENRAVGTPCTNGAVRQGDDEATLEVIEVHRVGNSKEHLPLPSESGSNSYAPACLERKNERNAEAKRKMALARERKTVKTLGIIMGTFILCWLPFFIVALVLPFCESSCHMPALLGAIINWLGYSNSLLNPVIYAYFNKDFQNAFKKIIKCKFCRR
Description: Inhibition of [3H]8-OH-DPAT binding at serotonin 5-hydroxytryptamine 1A receptor from rat hippocampus tissue. In kind it is tissue-based.

In assay [3] the target is Serotonin 2 (5-HT2) receptor (Rattus norvegicus, UniProt P30994+P08909+P14842). Description: Inhibition of [3H]ketanserin binding at 5-hydroxytryptamine 2 receptor from rat frontal cortex.

The text below walks through data of ChEMBL document CHEMBL1129281, “Effect of linking bridge modifications on the antipsychotic profile of some phthalimide and isoindolinone derivatives” (J Med Chem, 1996).

`O=C(CCCN1CCC(O)(c2ccc(Cl)cc2)CC1)c1ccc(F)cc1` [HALOPERIDOL]: the 50% effective dose (ED50) (as a rule, the midpoint of the dose-response relation) in assay [1] was determined as 2 mg/kg.

Regarding `O=C1c2ccccc2C(=O)N1C/C=C/CN1CCN(c2nsc3ccccc23)CC1`, the IC50 (commonly the concentration that inhibits the measured activity by half) in assay [2] came to 4.7 nM; in assay [3], 0.78 nM. In assay [1], this compound returned a median effective dose (ED50) of 12.7 mg/kg.

Turning to `O=C1c2ccccc2CN1CCCCCN1CCN(c2nsc3ccccc23)CC1`, the values for the IC50 in assay [2] and in assay [3] were 2.7 nM and 2.2 nM, respectively. Further, the 50% effect level in assay [1] (ED50) was put at a dose of 20 mg/kg.

Regarding `O=C1c2ccccc2CN1CCOCCN1CCN(c2nsc3ccccc23)CC1`, the median effective dose (ED50) in assay [1] is over 25 mg/kg. In assay [3], this compound gave an IC50 of 1.7 nM.

As to `O=C1c2ccccc2C(=O)N1CCCCN1CCN(c2nsc3ccccc23)CC1`, the ED50 in assay [1] amounted to 1.1 mg/kg.

Take `O=C1c2ccccc2CN1C1CCC(N2CCN(c3nsc4ccccc34)CC2)CC1` (configuration not stated): the half-inhibitory concentration (IC50) worked out at 140 nM in assay [2] and 120 nM in assay [3]. For the same compound, the 50% effect level in assay [1] (ED50) was put at a dose of 11.7 mg/kg.

Regarding `O=C1c2ccccc2C(=O)N1CCCN1CCN(c2nsc3ccccc23)CC1`, the IC50 in assay [2] amounted to 13 nM; in assay [3] it was 6 nM. The ED50 in assay [1] is over 25 mg/kg.

As for `O=C1c2ccccc2C(=O)N1CC1CC1CN1CCN(c2nsc3ccccc23)CC1` (configuration not stated), the results for the IC50 in assay [2] and in assay [3] were 19 nM and 4 nM, respectively. In addition, in assay [1], the median effective dose (ED50) came to 22.9 mg/kg.

For the compound `O=C1c2ccccc2CN1CCCCN1CCN(c2nsc3ccccc23)CC1`, in assay [1], the 50% effect level (ED50) was put at a dose of 6.8 mg/kg.

Regarding `O=C1c2ccccc2C(=O)N1CCOCCN1CCN(c2nsc3ccccc23)CC1`, the half-inhibitory concentration (IC50) in assay [2] is 54 nM; in assay [3], 5.4 nM. The compound further came in with an ED50 in assay [1] of over 25 mg/kg.

With `O=C1c2ccccc2CN1CCN1CCN(c2nsc3ccccc23)CC1`, the IC50 in assay [2] stood at 40 nM; in assay [3], 9.8 nM. For the same compound, the ED50 in assay [1] is over 25 mg/kg.

In assay [1], `O=C1c2ccccc2CN1C/C=C/CN1CCN(c2nsc3ccccc23)CC1` registered a 50% effective dose (ED50) of 17.6 mg/kg. Besides, the half-maximal inhibitory concentration (IC50) in assay [3] amounted to 1.7 nM.

In assay [1], `O=C1c2ccccc2CN1CC#CCN1CCN(c2nsc3ccccc23)CC1` had an ED50 of over 25 mg/kg. For the same compound, in assay [3], the IC50 is reported as 18 nM.

Turning to `O=C1c2ccccc2C(=O)N1CC#CCN1CCN(c2nsc3ccccc23)CC1`, the IC50 is 420 nM in assay [2] and 43 nM in assay [3]. The ED50 in assay [1] was over 25 mg/kg.

For the compound `O=C1c2ccccc2CN1C/C=C\CN1CCN(c2nsc3ccccc23)CC1`, the ED50 in assay [1] is 13.9 mg/kg. In assay [3], this compound returned a half-inhibitory concentration (IC50) of 5.5 nM.

In the case of `O=C1c2ccccc2C(=O)N1C/C=C\CN1CCN(c2nsc3ccccc23)CC1`, the IC50 in assay [2] was found to be 24 nM; in assay [3] it was 3.2 nM. Further, the ED50 in assay [1] is over 25 mg/kg.

Consider `O=C1c2ccccc2C(=O)N1CCCCCN1CCN(c2nsc3ccccc23)CC1`, for which the IC50 in assay [2] turned out to be 2 nM; in assay [3] it was 1.8 nM. The ED50 in assay [1] is 27 mg/kg.

For the compound `O=C1c2ccccc2CN1CCCN1CCN(c2nsc3ccccc23)CC1`, the IC50 was 390 nM in assay [2] and 13 nM in assay [3]. For the same compound, in assay [1], the ED50 was over 25 mg/kg.

On to `O=C1c2ccccc2C(=O)N1CCN1CCN(c2nsc3ccccc23)CC1`, for which the 50% inhibitory concentration (IC50) turned out to be 54 nM in assay [2] and 30 nM in assay [3]. In addition, the median effective dose (ED50) in assay [1] is over 25 mg/kg.
